These results are taken from patent publication US20160264565A1, “CRYSTALLINE DASATINIB PROCESS” (SHILPA MEDICARE LIMITED, priority 2013, published 2016).

Series [1] is described as follows: Stability of the crystal form on drying. In kind it is physicochemical. The note with it: drying for more than 20 hrs at 60-65° C. As to the method:
(§1) This stable form thus, offers various advantages in terms of storage, shelf life and favorable impurity profile.
(§2) The new stable crystalline Form-SDI is characterized by 3-methylbutan-1-ol content in range of 10-16% w/w. […] 3-methylbutan-1-ol content even on drying for more than 20 hrs at 60-65° C. This offers advantages for large scale manufacturing in terms of handling, storage, shelf life and favorable impurity profile.

Series [2] is described as follows: Stability on handling and storage. The note with it: handle and store for longer time. Type of series: physicochemical. The procedure:
as §1, §2

For the compound `Cc1nc(Nc2ncc(C(=O)Nc3c(C)cccc3Cl)s2)cc(N2CCN(CCO)CC2)n1` [Crystalline Form-SDI of Dasatinib, N-(2-chloro-6-methylphenyl)-2-[[6-[4-(2-hydroxyethyl)-1-piperazinyl]-2-methyl-4-pyrimidinyl]amino]-5-thiazolecarboxamide], the “stoichiometry (3-methylbutan-1-ol content) on drying” value in series [1] is given as “retains its stoichiometry”. Further, the “change in morphology and physicochemical characteristics on handling and storage for longer time” value was “without any significant or measurable change” in series [2] and “without any measurable change” in series [2] (listed as Form-SDI).
